# In patent US7531320B2, “Modulation of β-catenin/TCF-activated transcription” (priority 2003, dated 2009):
# What was measured:
# c-myc promoter = test: ChIP assay, c-myc promoter in SW480 cells; type: cell-based, human; details: 25 μM, 8 hours
# Experimental: FIG. 5. COMPOUND 1 inhibits the expression of cyclin D1. • A. Cyclin D1 levels are decreased with COMPOUND 1 treatment. Western blot analysis was performed on 25 μg of SW480 whole cell lysates treated for 4, 8, or 24 hours with either 25 μM of COMPOUND 1 or control (0.5% DMSO). Immunoblotting was performed using anti-Cyclin D1 antibodies (Santa Cruz Biotechnology Inc.). • B. In vivo occupancy of cyclin D1 and c-myc promoters by CBP and p300. […] ChIP assays were performed on promoter of c-myc from SW480 cells which was treated for 8 hours with COMPOUND 1 (25 μM) or control (0.5% DMSO). CBP (AC-26, a generous gift from Dr. David Livingston, Harvard University, Boston, Mass.) or p300 (C-20, Santa Cruz Biotechnology Inc.) specific antibodies were used to evaluate the promoter occupancy by CBP or p300 in presence of COMPOUND 1 or control (DMSO) treatment.
# Formaldehyde cross-linking and chromatin immunoprecipitation assays of SW480 cells were performed as described previously (Barlev et al., “Acetylation of p53 activates transcription through recruitment of coactivators/histone acetyltransferases,” Mol. Cell 8:1243-54 (2001); El-Osta et al., “Analysis of chromatin-immunopurified MeCP2-associated fragments,” Biochem. Biophys. Res. Commun. 289:733-37 (2001); Shang et al., “Formation of the androgen receptor transcription Complex,” Mol. Cell 9:601-10 (2002)). […]
# SW480 cells = test: cDNA microarray analysis (Clontech Atlas Human Cancer 1.2 Array) of SW480 cells; details: 25 μM; for Ratio, fos-related antigen (FRA1): gene code A13c; for Ratio, epidermal growth factor receptor (EGFR): gene code A12d; for Ratio, placental calcium-binding protein; calvasculin: gene code B07l; for Ratio, proliferating cyclic nuclear antigen (PCNA); cyclin: gene code C13e; for Ratio, growth arrest &DNA-damage-inducible protein 153 (GADD153): gene code C05d; for Ratio, integrin alpha 3 (ITGA3); galactoprotein B3 (GAPB3): gene code D03e; for Ratio, low-affinity nerve growth factor receptor (NGF receptor; NGFR): gene code D03k; for Ratio, histone H4: gene code D08b; for Ratio, nuclear protein: gene code D09b; for Ratio, interleukin-1 beta precursor (IL-1; IL1B); catabolin: gene code E07f; for Ratio, macrophage inhibitory cytokine 1 (MIC1): gene code E09e; for Ratio, neutrophil gelatinase-associated lipocalin precursor (NGAL): gene code F04i; for Ratio, early growth response alpha (EGR alpha): gene code F06n; for Ratio, gravin: gene code F09g; for Ratio, glycyl tRNA synthetase: gene code F13k
structure (smiles),measurement,setting,value
O=C1C(Cc2ccc(O)cc2)N2C(=O)CCN(C(=O)NCc3ccccc3)C2CN1Cc1cccc2ccccc12 (stereo not drawn) [COMPOUND 1],Association of CBP with the c-myc promoter,c-myc promoter,completely and selectively blocks
same,Level of p300 associated with the c-myc promoter,c-myc promoter,increased
same,"Ratio, WSL protein + TRAMP + Apo-3 + death domain receptor 3 (DDR3)","SW480 cells; 8-hour treatment, […]",1.84
same,"Ratio, integrin beta 4 (ITGB4); CD104 antigen","SW480 cells; 8-hour treatment, […]",1.84
same,"Ratio, G2/mitotic-specific cyclin B1 (CCNB1)","SW480 cells; 8-hour treatment, gene code A05i",0.57
same,"Ratio, matrix metalloproteinase 11 (MMP11); stromelysin 3","SW480 cells; 8-hour treatment, gene code A10f",0.77
same,"Ratio, fos-related antigen (FRA1)",SW480 cells; 8-hour treatment,2.48
same,"Ratio, brain glucose transporter 3 (GTR3)","SW480 cells; 8-hour treatment, gene code A14n",1.94
same,"Ratio, epidermal growth factor receptor (EGFR)",SW480 cells; 8-hour treatment,4.20
same,"Ratio, ERBB-3 receptor protein-tyrosine kinase precursor","SW480 cells; 8-hour treatment, gene code A14d",1.36
same,"Ratio, linker for activation of T-cells (LAT)","SW480 cells; 8-hour treatment, gene code B01m",0.74
same,"Ratio, placental calcium-binding protein; calvasculin",SW480 cells; 8-hour treatment,0.85
same,"Ratio, ras-related C3 botulinum toxin substrate 2; p21-rac2","SW480 cells; 8-hour treatment, gene code B12j",0.62
same,"Ratio, retinoic acid receptor beta (RXR-beta; RXRB)","SW480 cells; 8-hour treatment, gene code B14n",0.74
same,"Ratio, PTPCAAX1 nuclear tyrosine phosphatase (PRL-1)","SW480 cells; 8-hour treatment, gene code B08h",2.56
same,"Ratio, MCM4 DNA replication licensing factor; CDC21 homolog","SW480 cells; 8-hour treatment, gene code C06f",0.38
same,"Ratio, growth arrest &DNA-damage-inducible protein (GADD45)","SW480 cells; 8-hour treatment, gene code C09i",5.36
same,"Ratio, proliferating cyclic nuclear antigen (PCNA); cyclin",SW480 cells; 8-hour treatment,0.38
same,"Ratio, growth arrest &DNA-damage-inducible protein 153 (GADD153)",SW480 cells; 8-hour treatment,6.92
same,"Ratio, DNA-binding protein CPBP","SW480 cells; 8-hour treatment, gene code D03b",1.47
same,"Ratio, integrin alpha 3 (ITGA3); galactoprotein B3 (GAPB3)",SW480 cells; 8-hour treatment,2.82
same,"Ratio, low-affinity nerve growth factor receptor (NGF receptor; NGFR)",SW480 cells; 8-hour treatment,1.77
same,"Ratio, histone H4",SW480 cells; 8-hour treatment,0.73
same,"Ratio, integrin alpha 7B precursor (IGA7B)","SW480 cells; 8-hour treatment, gene code D08e",1.69
same,"Ratio, paxillin","SW480 cells; 8-hour treatment, gene code D08f",2.14
same,"Ratio, nuclear protein",SW480 cells; 8-hour treatment,2.11
same,"Ratio, T-cell surface glycoprotein CD3 epsilon subunit precursor","SW480 cells; 8-hour treatment, gene code D11c",0.60
same,"Ratio, interleukin-13 precursor (IL-13); NC30","SW480 cells; 8-hour treatment, gene code E01g",0.88
same,"Ratio, interleukin-1 beta precursor (IL-1; IL1B); catabolin",SW480 cells; 8-hour treatment,1.77
same,"Ratio, macrophage inhibitory cytokine 1 (MIC1)",SW480 cells; 8-hour treatment,6.94
same,"Ratio, nerve growth factor-inducible PC4 homolog","SW480 cells; 8-hour treatment, gene code E03d",3.27
same,"Ratio, neutrophil gelatinase-associated lipocalin precursor (NGAL)",SW480 cells; 8-hour treatment,5.85
same,"Ratio, ornithine decarboxylase","SW480 cells; 8-hour treatment, gene code F05e",1.82
same,"Ratio, early growth response alpha (EGR alpha)",SW480 cells; 8-hour treatment,3.15
same,"Ratio, ribonucleoside-diphosphate reductase M2 subunit","SW480 cells; 8-hour treatment, gene code F07e",0.53
same,"Ratio, type I cytoskeletal 18 keratin; cytokeratin 18 (K18)","SW480 cells; 8-hour treatment, gene code F08f",1.59
same,"Ratio, gravin",SW480 cells; 8-hour treatment,6.40
same,"Ratio, glycyl tRNA synthetase",SW480 cells; 8-hour treatment,2.23
same,"Ratio, proto-oncogene c-jun; transcription factor AP-1","SW480 cells; 24-hour treatment, gene code A01c",1.34
same,"Ratio, EB1 protein","SW480 cells; 24-hour treatment, gene code A02b",0.52
same,"Ratio, c-myc binding protein MM-1","SW480 cells; 24-hour treatment, gene code A03g",0.43
same,"Ratio, G1/S-specific cyclin D1 (CCND1); cyclin PRAD1; bcl-1 oncogene","SW480 cells; 24-hour treatment, gene code A06i",0.47
same,"Ratio, cyclin-dependent kinase regulatory subunit 1 (CKS1)","SW480 cells; 24-hour treatment, gene code A10k",0.28
same,"Ratio, cyclin-dependent kinase regulatory subunit (CKS2)","SW480 cells; 24-hour treatment, gene code A11k",0.40
same,"Ratio, fos-related antigen (FRA1)",SW480 cells; 24-hour treatment,1.99
same,"Ratio, epidermal growth factor receptor (EGFR)",SW480 cells; 24-hour treatment,2.51
same,"Ratio, ADP/ATP carrier protein","SW480 cells; 24-hour treatment, gene code B02a",0.21
same,"Ratio, 14-3-3 protein sigma; stratifin; epithelial cell marker protein 1","SW480 cells; 24-hour treatment, gene code B03m",0.45
same,"Ratio, placental calcium-binding protein; calvasculin",SW480 cells; 24-hour treatment,0.50
same,"Ratio, ets domain protein elk-3; NET; SRF accessory protein 2 (SAP2)","SW480 cells; 24-hour treatment, gene code C01j",1.71
same,"Ratio, tumor necrosis factor type 1 receptor associated protein (TRAP1)","SW480 cells; 24-hour treatment, gene code C04b",0.73
same,"Ratio, MCM2 DNA replication licensing factor; nuclear protein BM28","SW480 cells; 24-hour treatment, gene code C05f",0.23
same,"Ratio, proliferating cyclic nuclear antigen (PCNA); cyclin",SW480 cells; 24-hour treatment,0.33
same,"Ratio, HHR23A; UV excision repair protein protein RAD23A","SW480 cells; 24-hour treatment, gene code C04h",0.36
same,"Ratio, growth arrest &DNA-damage-inducible protein 153 (GADD153)",SW480 cells; 24-hour treatment,3.66
same,"Ratio, integrin alpha 3 (ITGA3); galactoprotein B3 (GAPB3)",SW480 cells; 24-hour treatment,2.99
same,"Ratio, low-affinity nerve growth factor receptor (NGF receptor; NGFR)",SW480 cells; 24-hour treatment,2.50
same,"Ratio, integrin beta 4 (ITGB4); CD104 antigen","SW480 cells; 24-hour treatment, gene code D06e",2.68
same,"Ratio, cytosolic superoxide dismutase 1 (SOD1)","SW480 cells; 24-hour treatment, gene code D06m",0.45
same,"Ratio, high mobility group protein HMG2","SW480 cells; 24-hour treatment, gene code D07b",0.35
same,"Ratio, glutathione synthetase (GSH synthetase; GSH-S)","SW480 cells; 24-hour treatment, gene code D07m",0.34
same,"Ratio, histone H4",SW480 cells; 24-hour treatment,0.27
same,"Ratio, nuclear protein",SW480 cells; 24-hour treatment,0.49
same,"Ratio, chromatin assembly factor 1 p48 subunit (CAF1 p48 subunit)","SW480 cells; 24-hour treatment, gene code D12a",0.70
same,"Ratio, N-sam; fibroblast growth factor receptor1 precursor (FGFR1)","SW480 cells; 24-hour treatment, gene code D08h",10.39
same,"Ratio, MHC class I truncated HLA G lymphocyte antigen","SW480 cells; 24-hour treatment, gene code E02m",1.36
same,"Ratio, 78-kDa glucose regulated protein precursor (GRP 78)","SW480 cells; 24-hour treatment, gene code E02n",2.35
same,"Ratio, PDGF associated protein","SW480 cells; 24-hour treatment, gene code E04i",0.45
same,"Ratio, interleukin-1 beta precursor (IL-1; IL1B); catabolin",SW480 cells; 24-hour treatment,1.98
same,"Ratio, macrophage inhibitory cytokine 1 (MIC1)",SW480 cells; 24-hour treatment,2.79
same,"Ratio, CD59 glycoprotein precursor","SW480 cells; 24-hour treatment, gene code E11l",0.66
same,"Ratio, fatty acid synthase","SW480 cells; 24-hour treatment, gene code F03e",0.34
same,"Ratio, vimentin (VIM)","SW480 cells; 24-hour treatment, gene code F04g",1.34
same,"Ratio, neutrophil gelatinase-associated lipocalin precursor (NGAL)",SW480 cells; 24-hour treatment,23.85
same,"Ratio, early growth response alpha (EGR alpha)",SW480 cells; 24-hour treatment,1.79
same,"Ratio, gravin",SW480 cells; 24-hour treatment,8.46
same,"Ratio, inosine-5′-monophosphate dehydrogenase 2","SW480 cells; 24-hour treatment, gene code F10c",0.68
same,"Ratio, BENE","SW480 cells; 24-hour treatment, gene code F12l",2.07
same,"Ratio, elongation factor 2 (EF2)","SW480 cells; 24-hour treatment, gene code F13j",0.55
same,"Ratio, glycyl tRNA synthetase",SW480 cells; 24-hour treatment,2.02
same,"Ratio, TRAM protein","SW480 cells; 24-hour treatment, gene code F09h",3.25
same,"Ratio, L-lactate dehydrogenase H subunit (LDHB)","SW480 cells; 24-hour treatment, gene code F06d",0.40
same,"Ratio, brain-specific tubulin alpha 1 subunit (TUBA1)","SW480 cells; 24-hour treatment, gene code G29",0.72
same,"Ratio, HLA class I histocompatibility antigen C-4 alpha subunit (HLAC)","SW480 cells; 24-hour treatment, gene code G31",1.29
same,"Ratio, 23-kDa highly basic protein; 60S ribosomal protein L13A","SW480 cells; 24-hour treatment, gene code G45",0.65
same,Genes analyzed down-regulated by greater than 50%,SW480 cells; 8 hours,~0.3%
same,Genes analyzed upregulated more than 2-fold,SW480 cells; 8 hours,~2%
